From BindingDB's records for patent US10633389 (Epizyme, Inc., 2020)

target: T1, Histone-arginine methyltransferase CARM1 (Homo sapiens, UniProt Q86X55); assay: Enzyme Assay
T1 sequence (Q86X55 whole entry): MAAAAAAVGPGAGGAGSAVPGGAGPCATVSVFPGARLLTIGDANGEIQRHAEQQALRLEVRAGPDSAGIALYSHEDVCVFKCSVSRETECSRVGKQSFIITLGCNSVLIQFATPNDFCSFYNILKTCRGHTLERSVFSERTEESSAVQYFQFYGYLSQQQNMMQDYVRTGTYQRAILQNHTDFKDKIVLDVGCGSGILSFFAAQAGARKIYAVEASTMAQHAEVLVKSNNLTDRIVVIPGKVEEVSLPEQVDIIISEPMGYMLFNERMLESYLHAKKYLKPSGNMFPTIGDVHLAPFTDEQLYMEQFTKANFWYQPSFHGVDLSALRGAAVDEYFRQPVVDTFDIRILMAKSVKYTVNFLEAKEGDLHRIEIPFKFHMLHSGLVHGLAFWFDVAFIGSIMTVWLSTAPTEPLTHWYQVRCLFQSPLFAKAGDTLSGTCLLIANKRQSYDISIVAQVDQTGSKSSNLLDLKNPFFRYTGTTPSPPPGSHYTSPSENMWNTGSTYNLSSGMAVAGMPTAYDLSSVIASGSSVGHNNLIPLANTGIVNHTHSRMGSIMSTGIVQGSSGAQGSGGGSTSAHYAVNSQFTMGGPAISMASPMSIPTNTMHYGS
Procedure: The assays were all performed in a buffer consisting of 20 mM Bicine (pH=7.6), 1 mM TCEP, 0.005% BSG, and 0.002% Tween 20, prepared on the day of use. […] DMSO (1 ul) was added to Columns 11, 12, 23, 24, rows A-H for the maximum signal control and 1 ul of SAH, a known product and inhibitor of CARM1, was added to columns 11, 12, 23, 24, rows I-P for the minimum signal control. A cocktail (40 ul) containing the CARM1 enzyme was added by Multidrop Combi. The compounds were allowed to incubate with CARM1 for 30 min at room temperature, then a cocktail (10 ul) containing 3H-SAM and peptide was added to initiate the reaction (final volume=51 ul). […] The assays were stopped by the addition of non-radiolabeled SAM (10 ul) to a final concentration of 300 uM, which dilutes the 3H-SAM to a level where its incorporation into the peptide substrate is no longer detectable. 50 ul of the reaction in the 384-well polypropylene plate was then transferred to a 384-well Flashplate and the biotinylated peptides were allowed to bind to the streptavidin surface for at least 1 hour before being washed once with 0.1% Tween20 in a Biotek ELx405 plate washer.

IC50, < 100 nM:
CCN1CCC(Nc2nc(-c3cc(OC[C@H](O)CNC)ccc3Cl)nc(-c3c(C)noc3C)c2C)C(F)(F)C1 (stereo partly specified) [US10633389, Example 291-3]
CNC[C@@H](O)COc1ccc(Cl)c(-c2nc(NC3CCN(C4CC4)CC3(F)F)c(C)c(-c3c(C)noc3C)n2)c1 (stereo partly specified) [US10633389, Example 292-3]
CNCC(O)COc1cccc(-c2nc(N[C@@H]3CCOC3)c(C)c(N3CCC[C@H]4CN(Cc5ccccc5)C[C@H]43)n2)c1 (stereo partly specified) [US10633389, Example 378-1a]
CNCC(O)COc1cccc(-c2nc(N[C@@H]3CCOC3)c(C)c(N3CCC(n4c(C)nnc4C)CC3)n2)c1 (stereo partly specified) [US10633389, Example 390-1a]
CNCC(O)COc1cccc(-c2nc(N[C@@H]3CCOC3)c(C)c(-c3ccc4nccn4c3)n2)c1 (stereo partly specified) [US10633389, Example 445-1a]
CCS(=O)(=O)n1cc(-c2cc(N(C)C3CCOCC3)nc(-c3cccc(OCC(O)CNC)c3)n2)c2cncnc21 (stereo unspecified) [US10633389, Example 484-1a]
